Laboratory results reported in patent US20250178998A1, “CRYSTAL FORM OF CYCLOHEXENONE COMPOUND” (TAIHO PHARMACEUTICAL CO., LTD., priority 2022, published 2025).

Key:
[1] = tested on: ND3 neuronal cell line; assay: Nerve growth stimulation effect: neurite bearing assay and neurite length assay; type: cell-based; conditions: for Number of cells (relative cell number, DMSO well = 1) / Neurite length per cell (relative activity, maximum activity of compound (I) = 1) / Proportion of neurite-bearing cells (relative activity, maximum activity of compound (I) = 1): 6 hours
Experimental: To evaluate the nerve growth stimulation effect, neurite bearing assay (proportion of neurite-bearing cells) and neurite length assay (neurite length) were analyzed with reference to the method of Topalli et al. (Brain Research 1030 (2004), pp. 116-124).
An ND3 neuronal cell line (European Collection of Authenticated Cell Cultures) was seeded in a DMEM medium containing 10% fetal bovine serum (0.6×10^4 cells/1 mL) in a 24-well plate. 24 hours later, the medium of seeded cells was removed, and a solution in which compound (I) that was sequentially diluted in dimethyl sulfoxide (DMSO) was adjusted in DMEM containing 0.1% bovine serum albumin so that the DMSO final concentration was 0.1%, was added to cells (evaluation performed in duplicate). After six hours from the addition, the proportion of neurite-bearing cells (the number of cells having a neurite longer than the diameter of the cell body/number of total cells), and the neurite length per cell were analyzed. Further, a test was performed in the same manner as described above, except that compound A was used in place of compound (I). The number of total cells, proportion of neurite-bearing cells, and neurite length per cell were analyzed using a MetaMorph Neurite Outgrowth Application Module (Molecular Devices Japan K. K.). The number of cells was defined as the relative cell number, taking the number of cells per well containing DMSO as 1 (Tables 4 and 5). […] The test was conducted multiple times, and the average value was shown. Data with a number of cells of 0.5 or more was used. Accordingly, if the number of cells was less than 0.5, the neurite length per cell and the proportion of neurite-bearing cells were defined as […]

[2] = Pharmacokinetics after oral administration to rats; type: in vivo, rat (Crl: CD (SD)); conditions: male rat, 10 mg/kg
Experimental: The required amount of compound (I) was weighed, and a drug suspension was prepared in 0.5% hydroxypropyl methylcellulose. The number of rats in each group was two, and each drug suspension was administered orally to each male rat (Crl: CD (SD)) using an oral sonde (the dose of the compound was 10 mg/kg). At each blood collection point (0.5, 1, 2, 4, 8, and 24 hours after administration), blood was collected from the jugular vein using a syringe and a needle (the anticoagulant was heparin sodium). The collected blood was centrifuged (13000 rpm, 2 min, 4° C.) to prepare plasma, followed by deproteinization. Thereafter, the concentration of the compound in the plasma was measured by LC/MS/MS (LCMS-8040 (Shimadzu Corporation) or API 4000 (AB Sciex), LC: 30-A and 20-A series (Shimadzu Corporation) or Waters Acquity (Waters Corporation)). A drug suspension was prepared and administered, and the concentration of the compound was measured, in the same manner as described above, except that compound A was used in place of compound (I).

[3] = tested on: streptozotocin-induced diabetes mellitus (DM) rat model; assay: Drug efficacy in diabetes mellitus (DM) rat model, bladder function by cystometry; type: in vivo, SD rats; conditions: STZ DM rats, oral twice a day for 4 weeks
Experimental: To examine the effect of the compound in a diabetes mellitus model, bladder function was analyzed by cystometry based on the method of Saitoh et al. (European Journal of Pharmacology 501 (2004) 143-149).
A streptozotocin (STZ) solution obtained by dissolving STZ in a citrate buffer solution (0.1 M citric acid, pH of 4.2) to a concentration of 32.5 mg/mL was prepared, and administered intraperitoneally (65 mg/kg) to SD rats to induce DM models. The same procedure was performed on sham rats except that a citrate buffer solution was used in place of the STZ solution.
On the day after the model production and 4 weeks later, a blood sample was taken from the tail vein with the rats awake to measure the blood glucose level. […] Individuals with a blood glucose level of 300 mg/dL or more on the day after the production of the model and 4 weeks later were determined to be established DM models and used in subsequent operations. […]
A pressure transducer (DX-360, Nihon Kohden Kogyo Co., Ltd.) and an infusion pump (TE-331S, Terumo Corporation) were connected via a three-way valve to the other end of the catheter inserted into the bladder. […] The volume of urination was automatically measured using an electronic balance (GX-200, A&D Company Limited) set directly under the holding cage, and recorded continuously on a computer using a PowerLab (sampling rate: 20/sec). […]

[4] = Solid stability test (HPLC purity after storage); type: physicochemical; conditions: for Change in purity / Change in purity (in words) / Increase in related substances / Purity after 4 weeks of storage under sealed conditions at 25° C.: 25° C./60% RH (closed system), 4 weeks; for Purity after 4 weeks of storage under sealed conditions at 25° C. / Purity of compound (I) before storage: HPLC
Experimental: The solid stability of the type I crystal, type II crystal, and type III crystal of compound (I) obtained in Examples 1 to 3 was evaluated after storage for 4 weeks.
Storage condition: 25° C./60% RH (closed system)
Storage amount: about 25 mg
Storage container: glass bottle
Changes in the purity of compound (I) and in the amounts of related substances (the amounts of substances detected other than compound (I)) were analyzed by weighing about 1 mg of the sample, dissolving it in 2 mL of acetonitrile, and accurately measuring 5 μL of this liquid for analysis by HPLC according to the following method. The handling of the apparatus, including data processing, was in accordance with the method and procedure as instructed for each apparatus.
Column: YMC-Triart C8 (4.6×150 mm, 3 μm), produced by YMC Co., Ltd.
Column temperature: 40° C.
Sample concentration: 0.5 mg/mL
Mobile phase A: Liquid mixture of water/acetonitrile (1:1 v/v)
Mobile phase B: Acetonitrile

[5] = Dynamic moisture adsorption/desorption test; type: physicochemical; conditions: at 95% relative humidity, 25° C.
Experimental: The type I crystal, type II crystal, and type III crystal of compound (I) obtained in Examples 1 to 3 were subjected to a moisture adsorption/desorption test after storage for 4 weeks.
The moisture adsorption/desorption test was performed according to the following conditions.
About 10 mg of the sample was filled in a dedicated quartz holder, and the weight of the sample at each humidity was continuously measured and recorded under the following conditions. The handling of the apparatus, including data processing, was in accordance with the method and procedure as instructed for each apparatus.
Apparatus: VTI-SA+ (TA Instruments, Inc.)
Drying temperature: 25° C.
Temperature increase rate: 1° C./min
Measurement temperature: 25° C.
Relative humidity program: Increase by 5% RH from 5% RH to 95% RH and decrease by 5% RH from 95% RH to 5% RH

COCCCCCCCCCCCCCCCC1=C(C)C(=O)CCC1(C)C [Compound (I), 3-(15-methoxypentadecyl)-2,4,4-trimethylcyclohex-2-en-1-one]
Number of cells (relative cell number, DMSO well = 1) ([1]; 1 μM): 1.06 | Number of cells (relative cell number, DMSO well = 1) ([1]; 3 μM): 1.01 | Number of cells (relative cell number, DMSO well = 1) ([1]; 5 μM): 0.94 | Number of cells (relative cell number, DMSO well = 1) ([1]; 10 μM): 0.92 | Number of cells (relative cell number, DMSO well = 1) ([1]; 30 μM): 0.96 | Number of cells (relative cell number, DMSO well = 1) ([1]; 100 μM): 0.92 | Nerve growth stimulation effect compared to compound A ([1]; Table 5): excellent nerve growth stimulation effect | Number of relative cells ([1]; added in an amount of 1 to 100 μM): ≥ 0.5 | Improvement in area under the curve (AUC) as compared to compound A [2]: ≥ 1900 times | Improvement in maximum blood concentration Cmax as compared to compound A [2]: ≥ 1100 times | Drug efficacy (residual urine volume, FIG. 10) as compared to compound A [3]: remarkable drug efficacy

CC1=C(CCCCCCCCCCCCCCCO)C(C)(C)CCC1=O [Compound A, 3-(15-Hydroxypentadecyl)-2,4,4-trimethylcyclohex-2-en-1-one]
Neurite length per cell (relative activity, maximum activity of compound (I) = 1) ([1]; 1 μM): 0.26 | Number of cells (relative cell number, DMSO well = 1) ([1]; 1 μM): 1.03 | Proportion of neurite-bearing cells (relative activity, maximum activity of compound (I) = 1) ([1]; 1 μM): 0.24 | Neurite length per cell (relative activity, maximum activity of compound (I) = 1) ([1]; 3 μM): 0.33 | Number of cells (relative cell number, DMSO well = 1) ([1]; 3 μM): 0.92 | Proportion of neurite-bearing cells (relative activity, maximum activity of compound (I) = 1) ([1]; 3 μM): 0.34 | Neurite length per cell (relative activity, maximum activity of compound (I) = 1) ([1]; 5 μM): 0.39 | Number of cells (relative cell number, DMSO well = 1) ([1]; 5 μM): 0.92 | Proportion of neurite-bearing cells (relative activity, maximum activity of compound (I) = 1) ([1]; 5 μM): 0.41 | Neurite length per cell (relative activity, maximum activity of compound (I) = 1) ([1]; 10 μM): 0.71 | Number of cells (relative cell number, DMSO well = 1) ([1]; 10 μM): 1.0 | Proportion of neurite-bearing cells (relative activity, maximum activity of compound (I) = 1) ([1]; 10 μM): 0.70 | Number of cells (relative cell number, DMSO well = 1) ([1]; 30 μM): 0.19

COCCCCCCCCCCCCCCCC1=C(C)C(=O)CCC1(C)C [Type I crystal, 3-(15-methoxypentadecyl)-2,4,4-trimethylcyclohex-2-en-1-one]
Change in purity [4]: +0.01% | Change in purity (in words) [4]: almost no change in purity | Increase in related substances [4]: almost no increase in related substances | Purity after 4 weeks of storage under sealed conditions at 25° C. [4]: 99.71% | Purity of compound (I) before storage [4]: 99.70% | Moisture absorption [5]: almost no moisture absorption

COCCCCCCCCCCCCCCCC1=C(C)C(=O)CCC1(C)C [Type II crystal, 3-(15-methoxypentadecyl)-2,4,4-trimethylcyclohex-2-en-1-one]
Change in purity [4]: −0.01% | Change in purity (in words) [4]: almost no change in purity | Increase in related substances [4]: almost no increase in related substances | Purity after 4 weeks of storage under sealed conditions at 25° C. [4]: 99.72% | Purity of compound (I) before storage [4]: 99.73% | Moisture absorption [5]: almost no moisture absorption

COCCCCCCCCCCCCCCCC1=C(C)C(=O)CCC1(C)C [Type III crystal, 3-(15-methoxypentadecyl)-2,4,4-trimethylcyclohex-2-en-1-one]
Change in purity (in words) [4]: almost no change in purity | Increase in related substances [4]: almost no increase in related substances | Purity after 4 weeks of storage under sealed conditions at 25° C. [4]: 99.77% | Purity of compound (I) before storage [4]: 99.77% | Moisture absorption [5]: almost no moisture absorption
